Measured values reported in patent publication US20260184700A1, “PDK1 REGULATORY COMPOUND AND COMPOSITION CONTAINING THE SAME” (PROVIBIO CO., LTD., priority 2024, published 2026).

Test system: T cells isolated from mouse spleen
Experiment: T cell proliferation inhibition, CFSE flow cytometry, CD3/CD28 activation
Format: cell-based
Conditions: CD3/CD28 activated, 3 days; for inhibition at 0.01 µM / inhibition at 0.1 µM / inhibition at 1 µM / inhibition at 10 µM / inhibition at 30 µM / inhibition at 50 µM: Mus musculus, T-cell, 72 h, read-out: Proliferation inhibition rate (%)
Experimental: To verify the T cell proliferation inhibitory effect of the compounds according to the present invention, the following experiment was performed based on flow cytometry analysis using carboxyfluorescein diacetate succinimidyl ester (CFSE), a fluorescent dye that binds to intracellular molecules via covalent bonds.
Spleens were extracted from 7-week-old C57BL/6 mice, ground, and then separated into single cells using a strainer (40 μm pore size, SPL). Red blood cells were removed using ACK (Ammonium-Chloride-Potassium) lysis buffer to isolate white blood cells.
Finally, using a MACS Magnetic Stand and LS column, T cells were isolated from the spleen.
The T cells isolated from the spleen were resuspended in 1 mL of free medium (RPMI-1640+200 U/mL penicillin+200 μg/mL streptomycin), and 0.3 μL of CFSE (10 mM) was added. The mixture was incubated at 37° C. for 5 minutes.
Free medium (10 mL) was added to stop the reaction, and the cells were centrifuged to obtain the cell pellet.
RPMI 1640 medium containing 10% FBS, 100 U/mL penicillin, 100 μg/mL streptomycin, and resuspended the cells. The cells were then seeded into a 96-well plate at a density of 2×10^5 cells per well and activated with CD3 and CD28 antibodies (0.5 μg/mL each) to activate T cells.
The compound diluted in DMSO was added at concentrations of 10 nM, 100 nM, 1 μM, 10 μM, 30 μM, and 50 μM, with three wells per concentration, and cultured at 37° C. and 5% CO2 for three days. The cells were then analyzed using a FACS Canto instrument.
The proliferation inhibition rate (%) was calculated using the following formula: […]

## Nc1ncccc1C(=O)NCCCCCCCCCCCCN1CCC2CCCCC2C1 (centres unmarked) [Compound 16, 2-Amino-N-(12-(octahydroisoquinolin-2 (1H)-yl)dodecyl)nicotinamide]
Compound 10 nM
  inhibition at 0.01 µM: 4.13%
Compound 100 nM
  inhibition at 0.1 µM: -2.93%
Compound 1 μM
  inhibition at 1 µM: 100%
Compound 10 μM
  inhibition at 10 µM: 100%
Compound 30 μM
  inhibition at 30 µM: 100%
Compound 50 μM
  inhibition at 50 µM: 100%

## Nc1ncccc1C(=O)NCCCCCCCCCCCCN1CCc2ccccc2C1 [Compound 17, 2-Amino-N-(12-(3,4-dihydroisoquinolin-2(1H)-yl)dodecyl) nicotinamide]
Compound 10 nM, listed as PBK-2024-004, 0.01 µM
  Proliferation inhibition rate (%): 0.00%
Compound 100 nM, listed as PBK-2024-004, 0.1 µM
  Proliferation inhibition rate (%): −14.00%
Compound 1 μM, listed as PBK-2024-004, 1 µM
  Proliferation inhibition rate (%): 100.00%
Compound 10 μM, listed as PBK-2024-004, 10 µM
  Proliferation inhibition rate (%): 100.00%

## CC1(C)CCN(CCCCCCCCCCCCNC(=O)c2cccnc2N)C1 [Compound 22, 2-Amino-N-(12-(3,3-dimethylpyrrolidin-1-yl)dodecyl) nicotinamide]
Compound 10 nM
  Proliferation inhibition rate (%): −0.80%
Compound 100 nM
  Proliferation inhibition rate (%): 100.00%
Compound 1 μM
  Proliferation inhibition rate (%): 100.00%
Compound 10 μM
  Proliferation inhibition rate (%): 100.00%
Compound 30 μM
  Proliferation inhibition rate (%): 100.00%
Compound 50 μM
  Proliferation inhibition rate (%): 100.00%

## COC1CCN(CCCCCCCCCCCCNC(=O)c2cccnc2N)C1 (centres unmarked) [Compound 32, 2-Amino-N-(12-(3-methoxypyrrolidin-1-yl)dodecyl) nicotinamide]
Compound 10 nM, listed as PBK-2024-024, 0.01 µM
  Proliferation inhibition rate (%): 0.29%

## CN(CCCCCCCCCCCCNC(=O)c1cccnc1N)C1CCCCC1 [Compound 34, 2-Amino-N-(12-(cyclohexyl(methyl)amino)dodecyl) nicotinamide]
Compound 100 nM
  Proliferation inhibition rate (%): 100.00%
Compound 1 μM
  Proliferation inhibition rate (%): 100.00%
Compound 10 μM
  Proliferation inhibition rate (%): 100.00%
Compound 30 μM
  Proliferation inhibition rate (%): 100.00%
Compound 50 μM
  Proliferation inhibition rate (%): 100.00%

## CC1CN(CCCCCCCCCCCCNC(=O)c2cccnc2N)C(C)CN1.Cl (centres unmarked) [Compound 36, 2-Amino-N-(12-(2,5-dimethylpiperazin-1-yl)dodecyl) nicotinamide hydrochloride]
Compound 100 nM
  Proliferation inhibition rate (%): 100.00%
Compound 1 μM
  Proliferation inhibition rate (%): 100.00%
Compound 10 μM
  Proliferation inhibition rate (%): 100.00%
Compound 30 μM
  Proliferation inhibition rate (%): 100.00%
Compound 50 μM
  Proliferation inhibition rate (%): 100.00%

## C[C@H]1CNCCN1CCCCCCCCCCCCNC(=O)c1cccnc1N.Cl [Compound 37, (S)-2-Amino-N-(12-(2-methylpiperazin-1-yl)dodecyl) nicotinamide hydrochloride]
Compound 1 μM
  Proliferation inhibition rate (%): 100.00%
Compound 10 μM
  Proliferation inhibition rate (%): 100.00%
Compound 30 μM
  Proliferation inhibition rate (%): 100.00%
Compound 50 μM
  Proliferation inhibition rate (%): 100.00%

## CC1CCCN(CCCCCCCCCCCCNC(=O)c2cccnc2N)CC1 (centres unmarked) [Compound 39, 2-Amino-N-(12-(4-methylazepan-1-yl)dodecyl) nicotinamide]
Compound 100 nM
  Proliferation inhibition rate (%): 100.00%
Compound 1 μM
  Proliferation inhibition rate (%): 100.00%
Compound 10 μM
  Proliferation inhibition rate (%): 100.00%
Compound 30 μM
  Proliferation inhibition rate (%): 100.00%
Compound 50 μM
  Proliferation inhibition rate (%): 100.00%

## CC1CN(C)C(CCCCCCCCCCCCNc2ccc3cncnc3n2)N1 (centres unmarked) [Compound 43]
Compound 100 nM
  Proliferation inhibition rate (%): 100.00%
Compound 1 μM
  Proliferation inhibition rate (%): 100.00%
Compound 10 μM
  Proliferation inhibition rate (%): 100.00%
Compound 30 μM
  Proliferation inhibition rate (%): 100.00%
Compound 50 μM
  Proliferation inhibition rate (%): 100.00%

## Nc1ncccc1C(=O)NCCCCCCCCCCCCN1CCC(O)CC1 [Compound 48, 2-Amino-N-(12-(4-hydroxypiperidin-1-yl)dodecyl) nicotinamide]
Compound 100 nM
  Proliferation inhibition rate (%): 100.00%
Compound 1 μM
  Proliferation inhibition rate (%): 100.00%
Compound 10 μM
  Proliferation inhibition rate (%): 100.00%
Compound 30 μM
  Proliferation inhibition rate (%): 100.00%
Compound 50 μM
  Proliferation inhibition rate (%): 100.00%

## CN(CCCCCCCCCCCCNC(=O)c1cccnc1N)C(C)(C)C [Compound 53, 2-Amino-N-(12-(tert-butyl(methyl)amino)dodecyl) nicotinamide]
Compound 100 nM
  Proliferation inhibition rate (%): 100.00%
Compound 1 μM
  Proliferation inhibition rate (%): 100.00%
Compound 10 μM
  Proliferation inhibition rate (%): 100.00%
Compound 30 μM
  Proliferation inhibition rate (%): 100.00%
Compound 50 μM
  Proliferation inhibition rate (%): 100.00%

## Nc1ncccc1C(=O)NCCCCCCCCCCCCN1CCN(CCO)CC1 [Compound 54, 2-Amino-N-(12-(4-(2-hydroxyethyl)piperazin-1-yl)dodecyl) nicotinamide]
Compound 100 nM
  Proliferation inhibition rate (%): 100.00%
Compound 1 μM
  Proliferation inhibition rate (%): 100.00%
Compound 10 μM
  Proliferation inhibition rate (%): 100.00%
Compound 30 μM
  Proliferation inhibition rate (%): 100.00%
Compound 50 μM
  Proliferation inhibition rate (%): 100.00%

## Cl.O=C(NCCCCCCCCCCCCN1CCNCC1)c1ccc(-c2ccccc2)o1 [Compound 90, 5-Phenyl-N-(12-(piperazin-1-yl)dodecyl) furan-2-carboxamide Hydrochloride]
Compound 10 μM
  Proliferation inhibition rate (%): 100.00%
Compound 30 μM
  Proliferation inhibition rate (%): 100.00%
Compound 50 μM
  Proliferation inhibition rate (%): 100.00%

## COC1CCN(CCCCCCCCCCCCNC(=O)c2cccnc2N)CC1 [Compound 94, 2-amino-N-(12-(4-methoxypiperidin-1-yl)dodecyl) nicotinamide]
Compound 100 nM
  Proliferation inhibition rate (%): 100.00%
Compound 1 μM
  Proliferation inhibition rate (%): 100.00%
Compound 10 μM
  Proliferation inhibition rate (%): 100.00%
Compound 30 μM
  Proliferation inhibition rate (%): 100.00%
Compound 50 μM
  Proliferation inhibition rate (%): 100.00%

## Nc1ncccc1C(=O)NCCCCCCCCCCCCN1CCN(C=O)CC1 [Compound 97, 2-amino-N-(12-(4-formylpiperazin-1-yl)dodecyl) nicotinamide]
Compound 1 μM
  Proliferation inhibition rate (%): 100.00%
Compound 10 μM
  Proliferation inhibition rate (%): 100.00%
Compound 30 μM
  Proliferation inhibition rate (%): 100.00%
Compound 50 μM
  Proliferation inhibition rate (%): 100.00%

## CC(C)(C)OC(=O)NC1CCN(CCCCCCCCCCCCNC(=O)c2cccnc2N)CC1 [Compound 101, tert-Butyl (1-(12-(2-aminonicotinamido)dodecyl)piperidin-4-yl)carbamate]
Compound 10 nM
  inhibition at 0.01 µM: -0.15%
Compound 100 nM
  inhibition at 0.1 µM: 100%
Compound 1 μM
  inhibition at 1 µM: 100%
Compound 10 μM
  inhibition at 10 µM: 100%
Compound 30 μM
  inhibition at 30 µM: 100%
Compound 50 μM
  inhibition at 50 µM: 100%

## CC(C)N1CCN(CCCCCCCCCCCCNC(=O)c2cccnc2N)CC1 [Compound 104, 2-Amino-N-(12-(4-isopropylpiperazin-1-yl)dodecyl) nicotinamide]
Compound 10 nM
  Proliferation inhibition rate (%): 100.00%
Compound 100 nM
  Proliferation inhibition rate (%): 100.00%
Compound 1 μM
  Proliferation inhibition rate (%): 100.00%
Compound 10 μM
  Proliferation inhibition rate (%): 100.00%
Compound 30 μM
  Proliferation inhibition rate (%): 100.00%
Compound 50 μM
  Proliferation inhibition rate (%): 100.00%

## CC(C)(C)OC(=O)N1CCN(CCCCCCCCCCCCNC(=O)c2cccnc2N)CC1 [Compound 111, tert-butyl-4-(12-(2-aminonicotinamido)dodecyl) piperazine-1-carboxylate]
Compound 10 nM
  Proliferation inhibition rate (%): 0.00%
Compound 100 nM
  Proliferation inhibition rate (%): 100.00%
Compound 1 μM
  Proliferation inhibition rate (%): 100.00%
Compound 10 μM
  Proliferation inhibition rate (%): 100.00%
Compound 30 μM
  Proliferation inhibition rate (%): 100.00%
Compound 50 μM
  Proliferation inhibition rate (%): 100.00%

## CN1CCN(CCCCCCCCCCCCNC(=O)c2cccnc2F)CC1 [Compound 121, 2-fluoro-N-(12-(4-methylpiperazin-1-yl)dodecyl) nicotinamide]
Compound 10 nM
  Proliferation inhibition rate (%): 0.00%
Compound 100 nM
  Proliferation inhibition rate (%): 0.00%
Compound 1 μM
  Proliferation inhibition rate (%): 0.00%
Compound 10 μM
  Proliferation inhibition rate (%): 30.00%
Compound 30 μM
  Proliferation inhibition rate (%): 100.00%
Compound 50 μM
  Proliferation inhibition rate (%): 100.00%

## Nc1ncccc1C(=O)NCCCCCCCCCCCCN1CC(F)(F)C1 [Compound 122, 2-Amino-N-(12-(3,3-difluoroazetidin-1-yl)dodecyl) nicotinamide]
Compound 10 nM
  Proliferation inhibition rate (%): 0.00%
Compound 100 nM
  Proliferation inhibition rate (%): 0.00%
Compound 1 μM
  Proliferation inhibition rate (%): 80.00%
Compound 10 μM
  Proliferation inhibition rate (%): 100.00%
Compound 30 μM
  Proliferation inhibition rate (%): 100.00%
Compound 50 μM
  Proliferation inhibition rate (%): 100.00%

## COC1CCN(CCCCCCCCCCCCNC(=O)c2cccnc2N)C1 (centres unmarked) [Compound 126, 2-amino-N-(12-(3-methoxypyrrolidin-1-yl)dodecyl) nicotinamide]
Compound 10 nM, listed as K-PB-48, 0.01 µM
  Proliferation inhibition rate (%): 0.00%
Compound 100 nM
  Proliferation inhibition rate (%): 100.00%
Compound 1 μM
  Proliferation inhibition rate (%): 100.00%
Compound 10 μM
  Proliferation inhibition rate (%): 100.00%
Compound 30 μM
  Proliferation inhibition rate (%): 100.00%
Compound 50 μM
  Proliferation inhibition rate (%): 100.00%
